Source: patent publication US9271991B2, “Trimegestone (TMG) for treatment of preterm birth” (Dignity Health, priority 2010, dated 2016)
“And” between values parts separate entries of the source, which are not always exact repeats. Identical values can stand only once. “Also recorded” adds a separate entry of the source.

Columns and labels:
[1] = species not stated; cited from earlier work
[2] = system: rat pups of treated pregnant rats; test: Sex of pups / fetuses of TMG-treated pregnant rats; assay type: in vivo
Protocol: To determine the effects of TMG on progeny sex ratios, pregnant rats (N=9 per group) were treated daily beginning on day 13 of gestation with TMG (in benzyl benzoate+castor oil, vehicle) or with vehicle only. […] Pups were then placed with surrogate mother also on day 22 of gestation whose pups were sacrificed.
As described, the sex of the pups was evaluated 21 days post-partum by examining external genitalia as well as distance between rectum and genitalia.

[3] = system: mineralocorticoid receptors (MR); details: cited from earlier work
[4] = system: estrogenic activity in the uterine endometrium; details: in vivo; cited from earlier work
[5] = target: T1, progesterone receptor (PR) (Homo sapiens, UniProt P06401); details: cited from earlier work
T1 sequence (P06401 1-933): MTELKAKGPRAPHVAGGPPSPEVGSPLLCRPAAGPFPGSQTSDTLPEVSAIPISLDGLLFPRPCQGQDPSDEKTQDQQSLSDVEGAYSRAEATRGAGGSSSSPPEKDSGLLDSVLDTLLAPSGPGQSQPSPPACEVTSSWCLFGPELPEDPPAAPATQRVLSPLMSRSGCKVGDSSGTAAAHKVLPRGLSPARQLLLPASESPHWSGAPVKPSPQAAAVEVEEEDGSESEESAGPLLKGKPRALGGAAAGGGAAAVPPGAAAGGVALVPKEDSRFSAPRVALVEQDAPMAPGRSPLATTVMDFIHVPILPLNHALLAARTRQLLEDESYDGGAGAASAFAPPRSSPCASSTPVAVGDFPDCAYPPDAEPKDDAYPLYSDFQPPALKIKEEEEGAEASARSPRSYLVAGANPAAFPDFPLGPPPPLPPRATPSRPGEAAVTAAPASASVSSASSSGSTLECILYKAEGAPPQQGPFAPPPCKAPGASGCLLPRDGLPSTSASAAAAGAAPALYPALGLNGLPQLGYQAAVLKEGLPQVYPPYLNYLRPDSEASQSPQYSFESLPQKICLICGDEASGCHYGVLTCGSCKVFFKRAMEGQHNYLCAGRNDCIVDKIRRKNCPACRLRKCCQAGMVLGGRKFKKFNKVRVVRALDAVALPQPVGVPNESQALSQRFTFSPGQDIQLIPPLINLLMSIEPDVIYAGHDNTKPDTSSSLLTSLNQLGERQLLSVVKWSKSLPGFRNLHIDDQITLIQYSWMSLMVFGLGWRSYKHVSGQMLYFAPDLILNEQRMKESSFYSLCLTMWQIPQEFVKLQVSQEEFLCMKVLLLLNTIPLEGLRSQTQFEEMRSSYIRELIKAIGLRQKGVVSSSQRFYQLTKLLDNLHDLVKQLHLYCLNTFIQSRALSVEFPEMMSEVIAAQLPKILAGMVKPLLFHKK

[6] = system: offspring of TMG-treated rats; test: Fertility of offspring of TMG-treated pregnant rats; assay type: in vivo, rat; details: offspring bred at 5 months with untreated partners, n=6 per sex
Text: To determine the effects of TMG on fertility the following procedure was followed. When pups from TMG-treated pregnant rats were of breeding age (5 months) the females were placed with normal (untreated) males for 6 days. Similarly, male pups from TMG-treated rats were placed with normal (untreated) females for 6 days.

[7] = system: pregnant guinea pigs (preterm delivery); test: PGE2-induced preterm delivery in pregnant guinea pigs; assay type: in vivo, Hartley guinea pigs; details: sacrifice day 48
Text: Pregnant guinea pigs, another model of pregnancy are also utilized as they more closely resemble the endocrine control of human pregnancy with progesterone levels in pregnancy maintained by the placenta as opposed to the ovaries, which is observed in pregnant rats.
Pregnant Hartley guinea pigs arrived at our facilities at 31-35 days gestation and housed in pairs, with free access to food and water and also maintained on a constant 12-hour light-dark cycle. The animals were euthanized with a combination of xylazine (Gemini; Burns Veterinary Supply Inc, Rockville Center, N.Y.) and ketamine HCL (Ketaset; Fort Dodge Laboratories Inc, Fort Dodge, Iowa). All procedures were approved by the Animal Care and Use Committee of the St. Joseph's Hospital and Medical Center in Phoenix, Ariz.
Pregnant guinea pigs (N=4-6 per group) were allocated into 4 groups (Vehicle (v) only, TMG only, PGE2 only, PGE2+TMG). PGE2 administration (3 mg/day s.c, v=saline) began daily on day 46 to day 47 of gestation. TMG administration (4 mg/day s.c v=BB:CO) began daily on day 44 until day 47 of gestation. All guinea pigs were sacrificed on day 48.

[8] = target: T2, glucocorticoid receptor (Homo sapiens, UniProt P04150); details: cited from earlier work
T2 sequence (P04150 1-777): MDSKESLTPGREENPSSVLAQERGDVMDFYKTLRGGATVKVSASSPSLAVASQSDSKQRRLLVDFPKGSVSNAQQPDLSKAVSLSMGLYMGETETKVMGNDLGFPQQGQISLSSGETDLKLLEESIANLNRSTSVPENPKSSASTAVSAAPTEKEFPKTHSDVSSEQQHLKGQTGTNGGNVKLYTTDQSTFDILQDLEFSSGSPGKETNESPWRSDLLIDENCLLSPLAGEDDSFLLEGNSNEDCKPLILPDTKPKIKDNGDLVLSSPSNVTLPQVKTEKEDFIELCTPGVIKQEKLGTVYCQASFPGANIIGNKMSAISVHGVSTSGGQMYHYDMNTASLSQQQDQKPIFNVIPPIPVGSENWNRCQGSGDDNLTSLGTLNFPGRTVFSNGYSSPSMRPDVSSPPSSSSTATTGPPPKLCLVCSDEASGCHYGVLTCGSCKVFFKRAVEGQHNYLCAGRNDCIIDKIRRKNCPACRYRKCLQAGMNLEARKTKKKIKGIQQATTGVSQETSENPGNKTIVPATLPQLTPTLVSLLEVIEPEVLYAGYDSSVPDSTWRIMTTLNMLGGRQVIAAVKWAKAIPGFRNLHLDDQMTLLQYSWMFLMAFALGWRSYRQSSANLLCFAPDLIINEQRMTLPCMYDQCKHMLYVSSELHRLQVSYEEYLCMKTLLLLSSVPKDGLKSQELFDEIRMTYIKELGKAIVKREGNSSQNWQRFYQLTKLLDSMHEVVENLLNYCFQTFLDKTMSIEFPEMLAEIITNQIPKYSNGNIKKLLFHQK

[9] = system: MMP expression (MMP-1, MMP-3) in cultured stromal cells; details: cited from earlier work

C[C@H](O)C(=O)[C@@]1(C)CC[C@H]2[C@@H]3CCC4=CC(=O)CCC4=C3CC[C@@]21C [TMG, trimegestone]
half-life [1]: 17 h | masculinizing or feminizing effects on the fetuses ([2]; fetuses of treated rats, treatment from day 13 of pregnancy): lacks masculinization or feminization effects; also recorded: no masculinizing or feminizing effects | ratio of male to female pups versus vehicle control ([2]; pregnant rats treated from day 13 of gestation, N=9): no significant difference; also recorded: non-significant differences | affinity to the mineralocorticoid receptor [3]: low affinity | relative binding affinity (RBA) for TMG-mineralocorticoid receptors (MR) [3]: 42 | antagonism of estrogenic activity in the uterine endometrium versus reference progestins [4]: highest level of estrogenic activity antagonism; also recorded: most potent antagonist of estrogenic activity | relative binding affinity (RBA) for TMG-PR interactions [5]: 588 | affinity for progesterone receptor (PR), higher than P4 ([5]; relative to P4): 6 fold | potency, higher than P4 ([5]; relative to P4): approximately 6 times | affinity for the human progesterone receptor, greater than progesterone (P4) ([5]; relative to P4, human progesterone receptor): 6 times | fertility of male and female offspring of treated rats [6]: not compromised | guinea pigs delivered (preterm) / treated, substance alone ([7]; TMG 4 mg/day s.c. days 44-47, PGE2 3 mg/day days 46, 47): 1/4 | guinea pigs delivered (preterm) / treated, TMG plus PGE2 ([7]; TMG 4 mg/day s.c. days 44-47 and PGE2 3 mg/day days 46-47): None and 2/6 | affinity to the glucocorticoid receptor [8]: low affinity | effect on MMP expression compared to P4 [9]: differential effect on MMP expression; also recorded: tighter control of MMP expression
